In US20130109682A1, “CYCLIC ETHER COMPOUNDS USEFUL AS KINASE INHIBITORS” (NOVARTIS AG, priority 2010, published 2013) one finds IC50 and EC50 data, which are given here for 17 compounds.

Assay [1] addresses PIM2 (Homo sapiens, UniProt Q9P1W9). As to the kind of experiment: Pim 2 AlphaScreen assay (high ATP). The assay is classed as biochemical. The following applies: read-out: Pim2 IC50. Summed up:
(§1)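 IC50 values rest on detection of phosphorylated Bad peptide: after a ~2 h kinase reaction, an EDTA stop buffer containing anti-phospho Ser/Thr antibody, Protein A and streptavidin AlphaScreen beads was added and read after overnight dark incubation. ATP was high (11-125× Km), with 2.5% DMSO in pH 7.5 Hepes buffer containing MgCl2, BSA, Tween-20 and DTT.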
For orientation: Alpha assays give light when donor and acceptor beads are brought close together.

Assay [2] relates to KMS11 (human myeloma cell line). Description: Cell proliferation assay (CellTiter-Glo), KMS11. The assay is classed as cell-based. The following applies: Homo sapiens, KMS-11; KMS11 cells, cell proliferation; read-out: KMS11-Luc EC50. The method in brief:
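EC50 derived from CellTiter-Glo luminescence after 3-day exposure at 37° C. Compound was diluted to 2× in medium and added to an equal volume of cells. KMS11 myeloma cells were plated on assay day at 2000/well in IMDM with 10% FBS and sodium pyruvate.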
For orientation: ATP-based viability assays read luminescence as a measure of living cells.

In assay [3] the target is PIM1 (Homo sapiens, UniProt P11309). As to the kind of experiment: Pim 1 AlphaScreen assay (high ATP). The assay is classed as biochemical. The following applies: read-out: Pim1 IC50. The method in brief:
as §1

Assay [4] concerns the target PIM3 (Homo sapiens, UniProt Q86V86). As to the kind of experiment: Pim 3 AlphaScreen assay (high ATP). The following applies: read-out: Pim3 IC50. Format: biochemical. The method in brief: as §1
Assay [5] deals with GSK3β (Homo sapiens, UniProt P49841). Description: GSK3β ATP depletion assay. The assay is classed as biochemical. The following applies: ATP depletion assay; read-out: GSK3b IC50. Summed up:
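Kinase activity is read as ATP consumption: luciferase luminescence reports the ATP remaining once roughly half of the 2 μM ATP is used. Reaction mix: 5 nM GSK3β, 10 μM b-CREB peptide, 50 mM Tris pH 7.5, 15 mM MgCl2, 1 mM DTT, 0.1% BSA, 2.5% DMSO. Enzyme and peptide are preincubated 15 min before ATP is added.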

One may read the IC50 as the concentration that inhibits the measured activity by half. As a reminder, the EC50 is the midpoint of the concentration-response curve.

Molecules are shown by their SMILES.

PIM1, sequence (P11309 whole entry): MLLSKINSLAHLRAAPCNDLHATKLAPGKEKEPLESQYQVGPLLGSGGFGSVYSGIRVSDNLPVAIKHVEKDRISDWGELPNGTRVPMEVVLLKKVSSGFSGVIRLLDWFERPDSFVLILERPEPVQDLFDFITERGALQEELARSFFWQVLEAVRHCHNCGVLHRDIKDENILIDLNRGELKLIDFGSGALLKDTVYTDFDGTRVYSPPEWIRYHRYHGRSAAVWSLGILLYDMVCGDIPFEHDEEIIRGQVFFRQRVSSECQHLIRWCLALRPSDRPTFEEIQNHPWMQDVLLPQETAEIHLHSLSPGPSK
PIM2, sequence (Q9P1W9 whole entry): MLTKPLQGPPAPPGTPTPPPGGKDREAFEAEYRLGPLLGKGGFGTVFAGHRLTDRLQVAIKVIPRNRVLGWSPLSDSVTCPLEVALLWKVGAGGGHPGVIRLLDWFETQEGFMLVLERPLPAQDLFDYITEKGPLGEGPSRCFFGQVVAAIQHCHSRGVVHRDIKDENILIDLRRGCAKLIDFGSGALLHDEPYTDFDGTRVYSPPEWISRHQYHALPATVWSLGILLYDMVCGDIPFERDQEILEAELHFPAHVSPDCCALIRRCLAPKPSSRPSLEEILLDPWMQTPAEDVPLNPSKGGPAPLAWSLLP
GSK3β, sequence (P49841 whole entry, species assumed): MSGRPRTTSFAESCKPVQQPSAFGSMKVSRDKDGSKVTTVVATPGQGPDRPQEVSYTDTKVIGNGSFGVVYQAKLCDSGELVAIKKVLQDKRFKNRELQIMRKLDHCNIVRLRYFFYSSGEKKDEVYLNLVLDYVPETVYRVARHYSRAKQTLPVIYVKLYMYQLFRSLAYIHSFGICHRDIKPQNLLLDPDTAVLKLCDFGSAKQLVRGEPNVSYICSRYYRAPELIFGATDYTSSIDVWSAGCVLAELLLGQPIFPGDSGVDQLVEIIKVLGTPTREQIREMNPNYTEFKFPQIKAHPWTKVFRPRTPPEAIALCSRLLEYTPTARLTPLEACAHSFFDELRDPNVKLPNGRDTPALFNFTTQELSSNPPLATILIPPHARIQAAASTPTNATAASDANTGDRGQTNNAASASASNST

On to `CS(=O)(=O)c1cc(F)c(-c2nc(C(=O)Nc3cnccc3[C@@H]3C[C@H](N)[C@@H](O)[C@H](C4CC4)O3)ccc2F)c(F)c1` [Example 326, N-(4-((2S,4S,5R,6S)-4-amino-6-cyclopropyl-5-hydroxytetrahydro-2H-pyran-2-yl)pyridin-3-yl)-6-(2,6-difluoro-4-(methylsulfonyl)phenyl)-5-fluoropicolinamide], for which the concentration for half-maximal inhibition (IC50) in assay [1] was 2200 nM; in assay [3], 27.5 nM; in assay [4], 1930 nM; in assay [5] it was > 25 µM. Moreover, the EC50 in assay [2] was > 10000 nM.

As for `C[C@H]1O[C@@H](c2ccncc2NC(=O)c2ccc(F)c(-c3ccccc3)n2)C[C@@H](N)[C@]1(C)O` [Example 320, N-(4-((2R,4R,5S,6R)-4-amino-5-hydroxy-5,6-dimethyltetrahydro-2H-pyran-2-yl)pyridin-3-yl)-5-fluoro-6-phenylpicolinamide], the half-maximal inhibitory concentration (IC50) in assay [1] came to 245 nM; in assay [3], 1 nM; in assay [4] it was 42 nM; in assay [5], 3.25 µM. In assay [2], the EC50 worked out at 4670 nM.

Take `CNC(=O)c1ccc(F)c(-c2nc(C(=O)Nc3cnccc3C3C[C@@H](N)[C@H](O)[C@@H](C(C)C)O3)ccc2F)c1F` (stereo in doubt) [Example 316, N-(4-((2S,4R,5S,6R)-4-amino-5-hydroxy-6-isopropyltetrahydro-2H-pyran-2-yl)pyridin-3-yl)-6-(2,6-difluoro-3-(methylcarbamoyl)phenyl)-5-fluoropicolinamide]: the IC50 turned out to be 5.1 nM in assay [1], 0.27 nM in assay [3], 5.76 nM in assay [4] and 4.39 µM in assay [5]. The EC50 in assay [2] came out at 60 nM.

For the compound `CC(C)[C@H]1O[C@@H](c2ccncc2NC(=O)c2ccc(F)c(-c3ccc(C#N)cc3F)n2)C[C@@H](N)[C@@H]1O` [Example 330, N-(4-((2R,4R,5S,6R)-4-amino-5-hydroxy-6-isopropyltetrahydro-2H-pyran-2-yl)pyridin-3-yl)-6-(4-cyano-2-fluorophenyl)-5-fluoropicolinamide], the IC50 in assay [1] was determined as 229 nM; in assay [3], 2 nM; in assay [4], 232 nM. In addition, the EC50 in assay [2] amounted to 2430 nM.

Regarding `CC[C@H]1O[C@@H](c2ccncc2NC(=O)c2ccc(F)c(-c3c(F)cccc3F)n2)C[C@@H](N)[C@@H]1O` [Example 331, N-(4-((2R,4R,5S,6R)-4-amino-6-ethyl-5-hydroxytetrahydro-2H-pyran-2-yl)pyridin-3-yl)-6-(2,6-difluorophenyl)-5-fluoropicolinamide], the concentration for half-maximal inhibition (IC50) in assay [1] is 11.8 nM; in assay [3] it was 0.2 nM; in assay [4] it was 6 nM. In addition, the EC50 in assay [2] was 70 nM.

Regarding `CC(C)[C@@H]1C[C@H](N)CC(c2ccncc2NC(=O)c2ccnc(-c3c(F)cccc3F)n2)O1` (stereo in doubt) [Example 328, N-(4-((2S,4S,6S)-4-amino-6-isopropyltetrahydro-2H-pyran-2-yl)pyridin-3-yl)-2-(2,6-difluorophenyl)pyrimidine-4-carboxamide], the results for the IC50 in assay [1], in assay [3] and in assay [4] were 165 nM, 7 nM and 172 nM, respectively. For the same compound, the EC50 in assay [2] was found to be 540 nM.

For `CC(C)(C)[C@H]1O[C@@H](c2ccncc2NC(=O)c2csc(-c3c(F)cccc3F)n2)C[C@@H](N)[C@@H]1O` [Example 268, N-(4-((2R,4R,5S,6R)-4-amino-6-tert-butyl-5-hydroxytetrahydro-2H-pyran-2-yl)pyridin-3-yl)-2-(2,6-difluorophenyl)thiazole-4-carboxamide], the 50% inhibitory concentration (IC50) in assay [1] was 20.3 nM; in assay [3], 0.16 nM; in assay [4] it was 3.6 nM; in assay [5], 0.207 µM.

For the compound `CC[C@@H]1O[C@H](c2ccncc2NC(=O)c2ccc(F)c(-c3c(F)cccc3F)n2)C[C@H](N)[C@H]1O` [Example 332, N-(4-((2S,4S,5R,6S)-4-amino-6-ethyl-5-hydroxytetrahydro-2H-pyran-2-yl)pyridin-3-yl)-6-(2,6-difluorophenyl)-5-fluoropicolinamide], the IC50 in assay [1] was determined as 310 nM; in assay [3], 6.3 nM; in assay [4], 157 nM. Also, the EC50 in assay [2] was found to be 4200 nM.

Turning to `Cc1cc(F)c(-c2nc(C(=O)Nc3cnccc3[C@H]3C[C@@H](N)[C@](C)(O)[C@@H](C)O3)ccc2F)c(F)c1` [Example 245, N-(4-((2R,4R,5S,6R)-4-amino-5-hydroxy-5,6-dimethyltetrahydro-2H-pyran-2-yl)pyridin-3-yl)-6-(2,6-difluoro-4-methylphenyl)-5-fluoropicolinamide], the IC50 in assay [1] came to 6.9 nM; in assay [3], 0.05 nM; in assay [4], 0.8 nM; in assay [5], 0.768 µM.

For the compound `CC(C)(C)[C@H]1O[C@@H](c2ccncc2NC(=O)c2nc(-c3c(F)cccc3F)ncc2N)C[C@@H](N)[C@@H]1O` [Example 260, 5-amino-N-(4-((2R,4R,5S,6R)-4-amino-6-tert-butyl-5-hydroxytetrahydro-2H-pyran-2-yl)pyridin-3-yl)-2-(2,6-difluorophenyl)pyrimidine-4-carboxamide], the IC50 was 6 nM in assay [1], 0.34 nM in assay [3], 3.6 nM in assay [4] and 1.04 µM in assay [5].

Regarding `CC(C)C1OC(c2ccncc2NC(=O)c2ccc(F)c(-c3c(F)cccc3F)n2)C[C@H](N)[C@H]1O` (stereo in doubt) [Example 274, N-(4-((2S,4S,5R,6R)-4-amino-5-hydroxy-6-isopropyltetrahydro-2H-pyran-2-yl)pyridin-3-yl)-6-(2,6-difluorophenyl)-5-fluoropicolinamide], the IC50 in assay [1] was 305 nM; in assay [3], 4.7 nM; in assay [4], 95.7 nM; in assay [5], 10.7 µM.

With `CC(C)[C@H]1O[C@@H](c2ccncc2NC(=O)c2ccc(F)c(-c3c(F)ccc(C#N)c3F)n2)C[C@@H](N)[C@@H]1O` [Example 329, N-(4-((2R,4R,5S,6R)-4-amino-5-hydroxy-6-isopropyltetrahydro-2H-pyran-2-yl)pyridin-3-yl)-6-(3-cyano-2,6-difluorophenyl)-5-fluoropicolinamide], the IC50 in assay [1] amounted to 14.7 nM; in assay [3], 0.7 nM; in assay [4], 14.7 nM. In addition, in assay [2], the EC50 was determined as 190 nM.

For `C[C@@]1(O)[C@@H](N)C[C@@H](c2ccncc2NC(=O)c2ccc(F)c(-c3c(F)cccc3F)n2)O[C@H]1C1CC1` [Example 257, N-(4-((2S,4S,5R,6S)-4-amino-6-cyclopropyl-5-hydroxy-5-methyltetrahydro-2H-pyran-2-yl)pyridin-3-yl)-6-(2,6-difluorophenyl)-5-fluoropicolinamide], the IC50 in assay [1] is 173 nM; in assay [3], 1.88 nM; in assay [4], 35.9 nM; in assay [5], 20 µM.

On to `CC[C@@H]1O[C@H](c2ccncc2NC(=O)c2ccc(F)c(-c3c(F)cccc3F)n2)C[C@H](N)[C@@]1(C)O` (stereo in doubt) [Example 276, N-(4-((2S,4S,5R,6S)-4-amino-6-ethyl-5-hydroxy-5-methyltetrahydro-2H-pyran-2-yl)pyridin-3-yl)-6-(2,6-difluorophenyl)-5-fluoropicolinamide], for which the IC50 in assay [1] was found to be 17.4 nM; in assay [3] it was 0.47 nM; in assay [4] it was 4.6 nM; in assay [5], 20.9 µM.

Take `N[C@H]1C[C@@H](c2ccncc2NC(=O)c2ccc(F)c(-c3c(F)cccc3F)n2)O[C@@H](C2CC2)[C@@H]1O` [Example 236, N-(4-((2S,4S,5R,6S)-4-amino-6-cyclopropyl-5-hydroxytetrahydro-2H-pyran-2-yl)pyridin-3-yl)-6-(2,6-difluorophenyl)-5-fluoropicolinamide]: the concentration for half-maximal inhibition (IC50) in assay [1] was 209 nM; in assay [3] it was 3.67 nM; in assay [4], 116 nM; in assay [5], > 25 µM.

For `C[C@]1(O)[C@H](N)C[C@H](c2ccncc2NC(=O)c2nc(-c3c(F)cccc3F)ncc2N)O[C@@H]1C1CC1` [Example 262, 5-amino-N-(4-((2R,4R,5S,6R)-4-amino-6-cyclopropyl-5-hydroxy-5-methyltetrahydro-2H-pyran-2-yl)pyridin-3-yl)-2-(2,6-difluorophenyl)pyrimidine-4-carboxamide], the IC50 was determined as 18.2 nM in assay [1], 2.15 nM in assay [3], 18.1 nM in assay [4] and 2.02 µM in assay [5].

In the case of `C[C@]1(O)[C@H](N)C[C@H](c2ccncc2NC(=O)c2ccc(F)c(-c3c(F)cccc3F)n2)OC12CC2` [Example 289, N-(4-((5R,7R,8S)-7-amino-8-hydroxy-8-methyl-4-oxaspiro[2.5]octan-5-yl)pyridin-3-yl)-6-(2,6-difluorophenyl)-5-fluoropicolinamide], the concentration for half-maximal inhibition (IC50) in assay [1] was determined as 213 nM; in assay [3] it was 2.5 nM; in assay [4], 29.7 nM; in assay [5], 6.93 µM.
